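Growth conditions: 96-well plates. Treatment: test compound, 48 hours, 5 concentrations. Analysis: linear interpolation between bracketing concentrations; unreached endpoints set to highest concentration. GI50: concentration for 50% inhibition of growth.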 Calls of active or inactive are those of the source. No stated cut-off is given here; in the data, active = GI50 up to about 1.1 µM and inactive = higher.
How the values were obtained:
Test in all cases: DTP human tumour cell line panel, 48 h
[1] = test system: 786-0
[2] = test system: COLO 205
[3] = test system: HCT-116
[4] = test system: HL-60
[5] = test system: HOP-92
[6] = test system: HT-29
[7] = test system: IGROV-1
[8] = test system: MDA-MB-231
[9] = test system: MDA-MB-435
[10] = test system: NCI-H226
[11] = test system: NCI/ADR-RES
[12] = test system: OVCAR-5
[13] = test system: OVCAR-8
[14] = test system: PC-3
[15] = test system: RXF 393
[16] = test system: SF-295
[17] = test system: SK-MEL-28
[18] = test system: SNB-75
[19] = test system: UACC-257
[20] = test system: SR

Measured: GI50

CN(C)CCNc1ccc2ncn3c4ccc(O)cc4c(=O)c1c23
inactive: [5] 2.54 µM | [8] 1.67 µM | [9] 2.41 µM | [11] 3 µM | [12] 3.38 µM | [14] 1.42 µM | [16] 1.39 µM | [17] 4.53 µM | [19] 5.74 µM
active: [1] 0.612 µM | [2] 0.698 µM | [3] 0.272 µM | [4] 0.647 µM | [6] 1.06 µM | [7] 1.09 µM | [10] 0.476 µM | [13] 0.646 µM | [15] 0.617 µM | [18] 0.404 µM

CCCCOCn1c(=O)[nH]c(=O)c2ccccc21
inactive: [1] > 100 µM | [2] > 100 µM | [3] > 100 µM | [4] 68.4 µM | [5] > 100 µM | [6] 40.3 µM | [7] 49 µM | [8] 33.3 µM | [9] > 100 µM | [10] 49.5 µM | [11] 22.8 µM | [12] > 100 µM | [13] 37.5 µM | [15] 48.2 µM | [16] > 100 µM | [17] > 100 µM | [18] 13.3 µM | [20] > 100 µM | [19] 78.7 µM

CC(C)=NN/C(=N\c1ccc(Cl)cc1)NS(=O)(=O)c1ccc(C)cc1
inactive: [1] 62.4 µM | [2] > 100 µM | [3] 76.4 µM | [4] 97.5 µM | [5] 38.8 µM | [6] > 100 µM | [7] 77.4 µM | [8] 73.1 µM | [9] 92.9 µM | [10] > 100 µM | [11] 69.3 µM | [12] > 100 µM | [13] > 100 µM | [14] 41.2 µM | [16] 35.2 µM | [17] 85.5 µM | [19] 35.2 µM

NNC(=O)c1cc(=O)[nH][nH]1
inactive: [1] > 100 µM | [2] > 100 µM | [3] > 100 µM | [5] > 100 µM | [6] > 100 µM | [7] > 100 µM | [8] > 100 µM | [9] > 100 µM | [10] > 100 µM | [11] > 100 µM | [12] > 100 µM | [13] > 100 µM | [14] > 100 µM | [15] > 100 µM | [16] > 100 µM | [18] > 100 µM | [19] > 100 µM

Cc1nc2ccc(Cl)cc2c2c1CCS2
inactive: [1] 66.4 µM | [2] 48.9 µM | [3] 41.1 µM | [4] 27.2 µM | [6] 41.8 µM | [7] 47.8 µM | [8] 49.2 µM | [9] 68.5 µM | [10] 51.6 µM | [11] 51.4 µM | [12] > 100 µM | [13] 92 µM | [14] 36.6 µM | [15] 47.5 µM | [16] > 100 µM | [17] > 100 µM | [20] 40.9 µM | [19] 97.7 µM

COC1=CC2=NCCc3n[nH]c(c32)C1=O
active: [4] 0.0482 µM
inactive: [1] 18.5 µM | [2] 17.7 µM | [3] 13.7 µM | [6] 13 µM | [7] 19.1 µM | [8] 14.5 µM | [9] 11.5 µM | [11] 29.1 µM | [12] 18.5 µM | [13] 15.2 µM | [14] 19.5 µM | [16] 28.1 µM | [17] 18.1 µM | [20] 13.4 µM | [19] 15.6 µM

COc1cccc2c(=O)c3c(O)c4cc(N(C)C)ccc4c(OC(C)=O)c3oc12
inactive: [1] 11.7 µM | [2] 4.1 µM | [3] 13.9 µM | [4] 3.96 µM | [5] 17.4 µM | [6] 14.1 µM | [8] 11.4 µM | [9] 12.6 µM | [10] 23.2 µM | [11] 21.7 µM | [12] 38.9 µM | [13] 15.7 µM | [14] 17.6 µM | [15] 4.72 µM | [16] 25.1 µM | [17] 10.5 µM | [18] 15.5 µM | [19] 12.9 µM

CCN(CC)CCN1CCN=C2c3cc(OC)ccc3Nc3c([N+](=O)[O-])ccc1c32
active: [1] 0.369 µM | [2] 1 µM | [4] 0.519 µM | [6] 0.881 µM | [8] 0.671 µM | [13] 0.441 µM | [14] 0.697 µM | [15] 0.843 µM | [17] 1 µM | [20] 0.221 µM
inactive: [5] 2.21 µM | [7] 1.72 µM | [9] 1.28 µM | [16] 1.82 µM | [18] 1.95 µM | [19] 2.59 µM

N=C(N)NCCNC(=N)N
inactive: [1] > 100 µM | [2] > 100 µM | [3] > 100 µM | [4] > 100 µM | [5] > 100 µM | [6] > 100 µM | [7] > 100 µM | [8] > 100 µM | [9] > 100 µM | [11] > 100 µM | [12] > 100 µM | [13] > 100 µM | [14] > 100 µM | [15] > 100 µM | [16] > 100 µM | [17] > 100 µM | [18] 89.9 µM | [19] > 100 µM

Cc1nn2c(C(=O)N/N=C/c3ccccc3O)c(C)nc2s1
inactive: [1] 47.8 µM | [2] 59.2 µM | [3] 51.6 µM | [4] 31.8 µM | [5] > 100 µM | [6] > 100 µM | [7] > 100 µM | [8] > 100 µM | [9] > 100 µM | [10] 89.3 µM | [11] 61.4 µM | [12] > 100 µM | [13] > 100 µM | [15] > 100 µM | [16] 85.9 µM | [17] > 100 µM | [18] > 100 µM | [19] > 100 µM

COc1ccc(C(SC2C(O)C(CO)OC2n2ccc(=O)[nH]c2=O)(c2ccccc2)c2ccc(OC)cc2)cc1 (stereo not drawn)
inactive: [1] 16.3 µM | [2] 17.7 µM | [3] 14.7 µM | [4] 25.6 µM | [5] 15.6 µM | [6] 17.6 µM | [7] 17.7 µM | [8] 16.1 µM | [9] 9.1 µM | [10] 16.6 µM | [11] 18.9 µM | [12] 18.4 µM | [13] 19.1 µM | [14] 14.9 µM | [15] 18.1 µM | [16] 7.57 µM | [17] 21.8 µM | [18] 18.5 µM | [19] 16.1 µM

Cn1cnc(C(N)=[Se])c1N
inactive: [1] 2.13 µM | [2] 2.09 µM | [3] 3.69 µM | [5] 6.56 µM | [6] 5.35 µM | [7] 1.33 µM | [8] 2.07 µM | [9] 5.26 µM | [10] 3.11 µM | [11] 1.89 µM | [12] 3.56 µM | [13] 1.92 µM | [14] 2.24 µM | [15] 1.6 µM | [17] 3.39 µM | [18] 2.2 µM | [19] 7.24 µM
active: [16] 0.244 µM

Reference: ChEMBL document CHEMBL1201862, “PubChem BioAssay data set” (2004)
